Data reported in patent US8415376B2, “Inhibitors of PI3 kinase” (Amgen Inc., priority 2008, dated 2013).

How the values were obtained:
PI3Kβ = biological target: T1, PI3Kβ (Homo sapiens, UniProt P42338); assay: In vitro PI3 kinase enzyme assay (PI3K ATP loss), beta; type: biochemical; conditions: average if run more than once
T1 construct: Full length p110 subunits of PI3K α, β and δ, N-terminally labeled with polyHis tag; polyHis (N); made in house; host or cells: Sf9 insect cells (baculovirus)
T1 sequence (P42338 whole entry): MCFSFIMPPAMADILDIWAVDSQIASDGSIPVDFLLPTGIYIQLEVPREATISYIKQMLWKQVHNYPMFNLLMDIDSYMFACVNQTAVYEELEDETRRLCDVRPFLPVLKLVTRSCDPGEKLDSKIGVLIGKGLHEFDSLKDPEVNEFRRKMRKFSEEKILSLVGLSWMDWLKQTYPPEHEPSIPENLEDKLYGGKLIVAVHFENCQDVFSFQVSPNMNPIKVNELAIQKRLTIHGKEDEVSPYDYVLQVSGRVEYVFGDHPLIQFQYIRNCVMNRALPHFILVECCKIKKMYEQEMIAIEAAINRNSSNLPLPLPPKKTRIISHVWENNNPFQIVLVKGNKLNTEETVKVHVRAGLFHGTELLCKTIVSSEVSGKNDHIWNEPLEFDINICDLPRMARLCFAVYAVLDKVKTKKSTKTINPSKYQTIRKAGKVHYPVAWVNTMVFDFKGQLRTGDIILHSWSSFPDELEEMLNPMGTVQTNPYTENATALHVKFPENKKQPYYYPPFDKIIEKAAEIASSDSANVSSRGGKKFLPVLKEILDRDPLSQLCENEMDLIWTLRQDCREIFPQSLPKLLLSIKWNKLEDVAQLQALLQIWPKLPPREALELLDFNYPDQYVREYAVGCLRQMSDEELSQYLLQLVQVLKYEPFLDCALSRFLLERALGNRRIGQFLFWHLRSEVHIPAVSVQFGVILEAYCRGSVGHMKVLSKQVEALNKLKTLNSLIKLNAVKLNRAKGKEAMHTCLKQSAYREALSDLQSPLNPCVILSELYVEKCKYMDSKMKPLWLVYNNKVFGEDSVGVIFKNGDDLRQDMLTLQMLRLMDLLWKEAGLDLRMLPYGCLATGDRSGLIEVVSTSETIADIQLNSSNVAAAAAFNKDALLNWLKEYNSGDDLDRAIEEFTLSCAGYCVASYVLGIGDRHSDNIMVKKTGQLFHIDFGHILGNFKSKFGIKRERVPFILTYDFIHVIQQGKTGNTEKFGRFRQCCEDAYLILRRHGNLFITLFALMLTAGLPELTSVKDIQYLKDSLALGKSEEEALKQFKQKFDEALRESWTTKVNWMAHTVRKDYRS
T1 sequence (P27986 whole entry partner): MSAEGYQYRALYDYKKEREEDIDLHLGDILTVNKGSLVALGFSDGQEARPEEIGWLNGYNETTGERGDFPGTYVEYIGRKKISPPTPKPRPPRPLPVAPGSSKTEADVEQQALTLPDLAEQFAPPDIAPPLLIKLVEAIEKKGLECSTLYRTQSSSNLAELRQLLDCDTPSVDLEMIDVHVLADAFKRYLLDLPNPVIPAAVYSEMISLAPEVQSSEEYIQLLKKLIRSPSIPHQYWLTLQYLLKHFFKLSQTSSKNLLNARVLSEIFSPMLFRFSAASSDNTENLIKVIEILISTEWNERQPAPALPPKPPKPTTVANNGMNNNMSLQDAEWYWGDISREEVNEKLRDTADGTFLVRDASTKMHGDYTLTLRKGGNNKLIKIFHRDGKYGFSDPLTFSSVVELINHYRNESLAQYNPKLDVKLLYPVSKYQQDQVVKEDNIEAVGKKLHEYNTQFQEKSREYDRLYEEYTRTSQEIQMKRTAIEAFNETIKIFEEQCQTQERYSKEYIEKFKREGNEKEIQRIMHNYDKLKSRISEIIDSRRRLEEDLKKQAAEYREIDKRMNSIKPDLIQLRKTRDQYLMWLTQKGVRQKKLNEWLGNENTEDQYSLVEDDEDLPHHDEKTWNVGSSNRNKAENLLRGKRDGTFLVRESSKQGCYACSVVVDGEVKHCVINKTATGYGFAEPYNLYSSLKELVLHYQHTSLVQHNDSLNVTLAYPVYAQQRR

[1] = test system: phosphorylation of Akt at Ser473; assay: Cell-based phospho-Akt Ser473 assay (HCT116 cell); conditions: HCT 116 human colon carcinoma cells, IGF-1 stimulated; average
Source text: Cell-Based Phospho-Akt Ser473 Assay (HCT116 Cell)
This assay determines the ability of a compound to inhibit the phosphorylation of […] in Akt using a MSD based sandwich immunoassay (Meso Scale Detection, Meso Scale Discovery (MSD), Gaithersburg, Md.). HCT 116 human colon carcinoma cell lines can be grown in McCoy's 5A growth medium (GIBCO, Carlsbad, Calif.) containing 10% FBS (GIBCO, Carlsbad, Calif.) and X1 Penicillin-streptomycin-glutamine (GIBCO, Carlsbad, Calif.). Prior to the assay, cells can be detached from the culture flask with trypsin, and re-suspended in complete media to give a final concentration of 1.6×10^5 cells per mL. Aliquots (100 μl) of the HCT116 cell suspension can be seeded into each well of a 96 well tissue culture plate to give a final density of 16,000 cells per well. Cells can then be incubated overnight at 37° C.
The following day the cells can be treated with serially diluted test compounds and incubated for 2 hours at 37° C. The culture media on the HCT 116 cells can be replaced with 189 μL McCoys media, supplemented with 0.1% BSA (ICN Biomedicals, Inc., Costa Mesa, Calif.). Compounds can be prepared as either 10 mM or 0.5 mM stock solutions in DMSO, and serially diluted 3 fold in a 10-point dose-response curve to give final concentrations that are 200-fold greater than the desired final test concentration. Aliquots (1 μL) of serially-diluted compounds can be transferred to 96 well tissue culture plates containing the HCT 116 cells. […] As a maximum response control, wells can contain 0.5% DMSO in place of compound. The plates can be mixed at 700 rpm for 2 min to ensure even distribution of the test compound and incubated for 2 hours at 37° C. Cells can then be stimulated with insulin-like growth factor 1 (Sigma, St Louis, Mo.) at final concentration of 100 ng/ml for 15 minutes at 37° C. The media can then be removed and the cells treated with 80 μL cell-lysis buffer (MSD) containing a cocktail of protease and phosphatase inhibitors for one hour at 4° C.
25 μL Cell lysate can then be transferred to pre-blocked MSD assay plates pre-coated with a capture antibody specific for Akt, and the plates can be incubated for 2 hours at room temperature. The cell lysates can then be removed and plates can then be washed four times with 200 μl per well of Tris wash buffer (500 mM Tris, PH 7.5, 1.5 M NaCl, 0.2% Tween-20). Subsequently cells can be incubated for 1 hour at room temperature with a 25 μL solution containing the detection antibody, anti-phospho Akt (Ser 473) labeled with an electrochemiluminescent compound (Meso Scale Discovery SULPHO-TAG™ label, MSD, Gaithersburg, Md.). The detection antibody can be removed and plates can then be washed four times with 200 μL per well of Tris wash buffer. An aliquot of 150 μL of diluted MSD read buffer can then be applied to each well, and the electrochemiluminescent signal can be measured using a MSD SECTOR™ plate reader (Meso Scale Discovery, Gaithersburg, Md.). This instrument measures the intensity of emitted light to determine a quantitative measure of phosphorylated Akt in each well. The dose-response data obtained with each compound can be analyzed and the IC50 inhibition of Akt phosphorylation at Ser473 can be calculated.
Activity data for the compounds tested in the PI3K cell based Akt assay is provided in Table 1 under the column heading HCT116 Cell.

mTOR = biological target: T2, mTOR (Homo sapiens, UniProt P42345); assay: In vitro mTOR assay (Lanthascreen); type: biochemical; conditions: average if run more than once
T2 construct: purchased Invitrogen (Carlsbad, Calif.)
T2 sequence (P42345 1360-2549 limits assumed): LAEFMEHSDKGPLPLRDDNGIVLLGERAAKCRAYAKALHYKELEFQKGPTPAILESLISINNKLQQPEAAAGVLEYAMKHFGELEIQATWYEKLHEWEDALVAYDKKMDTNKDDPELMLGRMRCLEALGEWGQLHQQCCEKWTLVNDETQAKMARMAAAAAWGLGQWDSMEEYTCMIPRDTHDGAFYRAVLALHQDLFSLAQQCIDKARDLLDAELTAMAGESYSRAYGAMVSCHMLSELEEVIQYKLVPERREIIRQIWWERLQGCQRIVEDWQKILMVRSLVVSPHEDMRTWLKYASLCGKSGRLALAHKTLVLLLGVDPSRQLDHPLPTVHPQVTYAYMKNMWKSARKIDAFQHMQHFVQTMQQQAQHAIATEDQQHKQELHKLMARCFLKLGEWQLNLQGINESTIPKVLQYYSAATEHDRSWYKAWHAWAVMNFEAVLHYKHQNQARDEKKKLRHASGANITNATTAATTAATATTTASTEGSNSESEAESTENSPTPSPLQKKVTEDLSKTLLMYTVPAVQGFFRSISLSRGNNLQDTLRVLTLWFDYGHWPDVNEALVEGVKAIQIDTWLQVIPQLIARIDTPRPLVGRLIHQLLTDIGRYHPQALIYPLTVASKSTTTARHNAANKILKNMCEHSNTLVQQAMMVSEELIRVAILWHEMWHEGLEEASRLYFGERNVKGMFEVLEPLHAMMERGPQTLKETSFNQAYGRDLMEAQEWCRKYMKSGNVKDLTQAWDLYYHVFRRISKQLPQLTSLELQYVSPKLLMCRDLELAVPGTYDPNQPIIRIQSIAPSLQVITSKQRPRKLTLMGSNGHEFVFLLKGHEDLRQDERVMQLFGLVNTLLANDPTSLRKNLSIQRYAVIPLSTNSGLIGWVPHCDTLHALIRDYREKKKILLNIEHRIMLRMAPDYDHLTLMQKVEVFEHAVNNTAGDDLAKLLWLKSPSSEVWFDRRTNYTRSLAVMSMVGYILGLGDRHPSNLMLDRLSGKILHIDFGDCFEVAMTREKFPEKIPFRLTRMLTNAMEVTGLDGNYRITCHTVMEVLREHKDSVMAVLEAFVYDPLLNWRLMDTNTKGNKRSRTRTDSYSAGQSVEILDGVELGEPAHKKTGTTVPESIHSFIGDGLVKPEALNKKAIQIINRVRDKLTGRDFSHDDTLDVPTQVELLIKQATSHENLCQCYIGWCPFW
Source text: The Invitrogen (Carlsbad, Calif.) mammalian target of rapamycin (mTOR) Lanthascreen assay can be used to quantitate mTOR kinase activity in an in vitro setting. Active mTOR phosphorylates eukaryotic translation initiation factor 4E binding protein 1 (4E-BP1) on residue threonine 46. This phosphorylation event can be detected with a phospho-specific terbium (Tb) labeled Ab, in turn bringing the Tb label in close proximity to the GFP tagged 4E-BP1 and allowing for time-resolved fluorescence resonance energy transfer (TR-FRET), which correlates 4E-BP1 phosphorylation levels with mTOR kinase activity.
Enzyme reaction buffer can be prepared in deionized water containing 50 mM HEPES (pH 7.5), 0.01% Polysorbate 20, 1 mM EGTA, and 10 mM MnCl2.
Dilutions of the compound to be tested can be prepared in 96-well polypropylene plates (Fisher Scientific, Waltham, Mass.). One row represents a 10-point dose of compound diluted 1:3 in enzyme reaction buffer and 20% dimethyl sulfoxide (DMSO). The top concentration for all compounds is 36 μM. Wells 6 and 12 can serve as the no compound (DMSO only) and high compound controls.
An mTOR substrate solution can prepared in enzyme reaction buffer containing 1600 nM green fluorescent protein tagged eukaryotic translation initiation factor 4E binding protein 1 (GFP-4E-BP1) (Invitrogen, Carlsbad, Calif.) and 28 uM adenosine triphosphate (ATP) (Calbiochem, Gibbstown, N.J.).
mTOR enzyme (Invitrogen, Carlsbad, Calif.) can be diluted in enzyme reaction buffer to a working concentration of 100 ng/mL.
The enzyme assay can be run in 384 well low volume assay plates (Corning, Corning, N.Y.). 2.5 uL of substrate solution containing GFP-4E-BP1 and ATP can be added to appropriate wells in the assay plate followed by 2.5 μL of compound dilutions. 5 μL of appropriately diluted mTOR enzyme can be added and the reaction allowed to proceed for 1 hour at room temperature. Final reagent concentrations in the enzyme assay are 50 ng/mL mTOR, 400 nM GFP-4E-BP1, and 7 μM ATP.
The enzyme assay can be terminated upon the addition of 10 μL of 20 mM EDTA and 4 nM Tb-labeled anti-phospho-4E-BP1 [T46] antibody (Invitrogen, Carlsbad, Calif.). The assay plate can then be incubated at room temperature for 1 hour and results read on a Tecan Safire II plate reader (Tecan, Männedorf, Switzerland).

SMILES	IC50 (PI3Kβ)	IC50 [1]	IC50 (mTOR)
O=S(=O)(Nc1cc(-c2ccc3ncc(NCCc4ccccc4)nc3c2)cnc1Cl)c1ccc(F)cc1 [Example 64, N-(2-chloro-5-(3-((2-phenylethyl)amino)-6-quinoxalinyl)-3-pyridinyl)-4-fluorobenzenesulfonamide]	0.0597 µM	0.188 µM	
O=S(=O)(Nc1cc(-c2ccc3ncc(N4C[C@H]5CC[C@H](CC5)C4)nc3c2)cnc1Cl)c1ccc(F)cc1 [Example 62, N-(5-(3-(3-azabicyclo[3.2.2]non-3-yl)-6-quinoxalinyl)-2-chloro-3-pyridinyl)-4-fluorobenzenesulfonamide]	0.343 µM	0.263 µM	
COCCNc1cnc2ccc(-c3cnc(Cl)c(NS(=O)(=O)c4ccc(F)cc4)c3)cc2n1 [Example 73, N-(2-chloro-5-(3-((2-methoxyethyl)amino)-6-quinoxalinyl)-3-pyridinyl)-4-fluorobenzenesulfonamide]	0.0334 µM	0.0595 µM	
O=S(=O)(Nc1cc(-c2ccc3ncc(NCC4CCCCC4)nc3c2)cnc1Cl)c1ccc(F)cc1 [Example 70, N-(2-chloro-5-(3-((cyclohexylmethyl)amino)-6-quinoxalinyl)-3-pyridinyl)-4-fluorobenzenesulfonamide]	0.0532 µM	0.151 µM	
O=S(=O)(Nc1cc(-c2ccc3ncc(N4CCOCC4)nc3c2)cnc1Cl)c1ccc(F)cc1 [Example 20, N-(2-chloro-5-(3-(4-morpholinyl)-6-quinoxalinyl)-3-pyridinyl)-4-fluorobenzenesulfonamide]		0.0062 µM	
COc1nc(-c2cnc(Cl)c(NS(=O)(=O)c3ccc(F)cc3)c2)cc2cccnc12 [Example 76, N-(2-Chloro-5-(8-methoxy-1,7-naphthyridin-6-yl)pyridin-3-yl)-4-fluorobenzenesulfonamide]		0.806 µM	
COCCOc1ccnc2ccc(-c3cnc(Cl)c(NS(=O)(=O)c4ccc(F)cc4)c3)cc12 [Example 31, N-(2-chloro-5-(4-(2-methoxyethoxy)-6-quinolinyl)-3-pyridinyl)-4-fluorobenzenesulfonamide]	0.0144 µM	0.0252 µM	
CC(C)N1CCN(c2ccnc3ccc(-c4cnc(Cl)c(NS(=O)(=O)c5ccc(F)cc5)c4)cc23)CC1 [Example 25, N-(2-chloro-5-(4-(4-(1-methylethyl)-1-piperazinyl)-6-quinolinyl)-3-pyridinyl)-4-fluorobenzenesulfonamide]	0.0119 µM	0.0189 µM	
COC1CCN(c2cnc3ccc(-c4cnc(Cl)c(NS(=O)(=O)c5ccc(F)cc5)c4)cc3n2)CC1 [Example 69, N-(2-chloro-5-(3-(4-methoxy-1-piperidinyl)-6-quinoxalinyl)-3-pyridinyl)-4-fluorobenzenesulfonamide]	0.0344 µM	0.0526 µM	
O=S(=O)(Nc1cc(-c2ccc3ncccc3n2)cnc1Cl)c1ccc(F)cc1 [Example 41, N-(2-chloro-5-(1,5-naphthyridin-2-yl)-3-pyridinyl)-4-fluorobenzenesulfonamide]	0.0597 µM	0.629 µM	
O=S(=O)(Nc1cc(-c2ccc3nccc(N4CCOCC4)c3c2)cnc1Cl)c1ccc(F)cc1 [Example 1, N-(2-chloro-5-(4-(4-morpholinyl)-6-quinolinyl)-3-pyridinyl)-4-fluorobenzenesulfonamide]		0.0174 µM	
O=S(=O)(Nc1cc(-c2ccc3nccnc3c2)cnc1Cl)c1ccc(F)cc1 [Example 6, N-(2-chloro-5-(6-quinoxalinyl)-3-pyridinyl)-4-fluorobenzenesulfonamide]	0.0254 µM	1.59 µM	
CN(C)c1ccnc2ccc(-c3cnc(Cl)c(NS(=O)(=O)c4ccc(F)cc4)c3)cc12 [Example 97, N-(2-chloro-5-(4-(dimethylamino)-6-quinolinyl)-3-pyridinyl)-4-fluorobenzenesulfonamide]			0.111 µM
O=S(=O)(Nc1cc(-c2ccc3ncc(NCCN4CCCCC4)nc3c2)cnc1Cl)c1ccc(F)cc1 [Example 61, N-(2-chloro-5-(3-((2-(1-piperidinyl)ethyl)amino)-6-quinoxalinyl)-3-pyridinyl)-4-fluorobenzenesulfonamide]	0.0155 µM	0.0515 µM	
COCCNc1ccnc2ccc(-c3cnc(Cl)c(NS(=O)(=O)c4ccc(F)cc4)c3)cc12 [Example 98, N-(2-chloro-5-(4-((2-methoxyethyl)amino)-6-quinolinyl)-3-pyridinyl)-4-fluorobenzenesulfonamide]			1.16 µM
CN(Cc1ccccc1)c1cnc2ccc(-c3cnc(Cl)c(NS(=O)(=O)c4ccc(F)cc4)c3)cc2n1 [Example 65, N-(5-(3-(benzyl(methyl)amino)-6-quinoxalinyl)-2-chloro-3-pyridinyl)-4-fluorobenzenesulfonamide]	0.0303 µM	0.279 µM	
COCCN(C)c1cnc2ccc(-c3cnc(Cl)c(NS(=O)(=O)c4ccc(F)cc4)c3)cc2n1 [Example 55, N-(2-chloro-5-(3-((2-methoxyethyl)(methyl)amino)-6-quinoxalinyl)-3-pyridinyl)-4-fluorobenzenesulfonamide]	0.0207 µM	0.064 µM	
O=S(=O)(Nc1cc(-c2ccc3nccc(N4CCCCC4)c3c2)cnc1Cl)c1ccc(F)cc1 [Example 24, N-(2-chloro-5-(4-(1-piperidinyl)-6-quinolinyl)-3-pyridinyl)-4-fluorobenzenesulfonamid]	0.0184 µM	0.159 µM	
O=S(=O)(Nc1cc(-c2ccc3nccc(Cl)c3c2)cnc1Cl)c1ccc(F)cc1 [Example 2, N-(2-chloro-5-(4-chloro-6-quinolinyl)-3-pyridinyl)-4-fluorobenzenesulfonamide]	0.0093 µM	0.109 µM	
COc1ncccc1-c1ccnc2ccc(-c3cnc(Cl)c(NS(=O)(=O)c4ccc(F)cc4)c3)cc12 [Example 35, N-(2-chloro-5-(4-(2-methoxy-3-pyridinyl)-6-quinolinyl)-3-pyridinyl)-4-fluorobenzenesulfonamide]	0.0212 µM	0.0548 µM	
